The values below are quoted from earlier work in patent publication US20210324031A1, “COMPOUNDS, COMPOSITIONS, METHODS, AND USES FOR TREATING LEPTIN RESISTANCE, OBESITY, DIABETES MELLITUS AND METABOLIC SYNDROME” (priority 2019, published 2021).

Where a SMILES comes first, the peptide text is derived from it. [ ]: non-standard residue; d: D form. The star is where a group is joined. Dolaproine = CO[C@@H]([C@@H]1CCCN1)[C@@H](C)C(=O)O; Dil = CC[C@H](C)[C@H](NC)[C@@H](CC(=O)O)OC; X1 = C[C@@H](N*)[C@@H](O)c1ccccc1; NMeV = CN[C@H](C(=O)O)C(C)C

For data set [1] the following is noted: Human cancer clinical trials.
Data set [2] relates to CD30+ ALCL type tumor Karpas 299.

As for `NS(=O)(=O)OC[C@H]1C[C@H](n2ccc3c(N[C@@H]4CCc5ccccc54)ncnc32)C[C@H]1O` (stereo in doubt) [MLN4924, ((1R,2R,4S)-4-(4-(((R)-2,3-dihydro-1H-inden-1-yl)amino)-7H-pyrrolo[2,3-d]pyrimidin-7-yl)-2-hydroxycyclopentyl)methyl sulfamate], the “toxicity in clinical trials” value in data set [1] is recorded as “toxic”.
On to `CC[C@H](C)[C@@H]([C@@H](CC(=O)N1CCC[C@H]1[C@H](OC)[C@@H](C)C(=O)N[C@H](C)[C@@H](O)c1ccccc1)OC)N(C)C(=O)[C@@H](NC(=O)[C@@H](NC)C(C)C)C(C)C` [MMAE, monomethyl auristatin E] (H-[NMeV]V[Dil][Dolaproine]-X1), for which the “control of tumor growth” value in data set [2] (ADC format, conjugated to an anti-CD30 antibody, drug to antibody ratio 2:1, MMAE dose 10 times lower than the free drug) is “completely control tumor growth”. Also, in data set [2] (free drug at maximal tolerated dose 0.3 mg/kg, compared with saline), the “halt of tumor growth” value is recorded as “only slightly better than saline”. For the same molecule, in data set [2] (free drug, mice with human xenografted tumors), the maximal tolerated dose is given as 0.3 mg/kg.
